pIC50: −log10 of the molar value.
How the values were obtained:
MDA-MB-231 cells = experiment: Dead cells by DIOC6(3)/DAPI test with cathepsine B inhibitor; assay type: cell-based, Human; conditions: 500 nM; COA74-Me 30 μM; 48 h, 96 h, 108 h
Experimental: From the treatment, dead cells were assessed by DIOC6(3)/DAPI test and analyzed by flow cytometry.

SW620 = experiment: Cell death IC50, Annexin V-FITC/PI flow cytometry; assay type: cell-based; conditions: Homo sapiens, SW-620, 108 h, read-out: IC50 SW620
Experimental: (§1) The cells were seeded in a 6-well plate at density 5.105 cells/well and cultured overnight. The cells were then treated with various concentration (15, 30, 100, 500, 1000 and 10.000 nM) of salinomycine, AM5 and AM23 for 72 h, 96 h and 108 h. After treatment, cell death was quantified using Annexin V-FITC/Propidium Iodide (PI) assay according to the manufacturer's protocol (FITC Annexin V Apoptosis Detection Kit II, 556570, BD Pharmingen™) and analyzed by a LSRFortessa™ flow cytometer (BD Bioscience, San Jose, Calif.). The data were processed using Cell Quest software (BD Biosciences). Dose-response cell death curves were determined for indicated time.
(§2) For tumor cells, the cells are classified in function of their sensitivity of drugs. Here, the most sensitive cells are incubated for 72 h, the middle sensitive cells for 96 h and the less sensitive or resistant cells are incubated for 108 h with drug at several concentrations.
(§3) Concentrations of 30 nM, 500 nm and 1 μM were used for determining the IC50 of drugs.
(§4) Intervals][…]] mean that IC50 is included in this interval with exclusion of the valor 30 nM.
(§5) The SW620 and SW480 cell lines are from colon tumors.

SW480 = experiment: Cell death IC50, Annexin V-FITC/PI flow cytometry; assay type: cell-based; conditions: Homo sapiens, SW480, 108 h, read-out: IC50 SW480
Experimental: as §1, §2, §3, §4, §5

HMLER CD24+ cells = experiment: Cell viability assay (CellTiter-Blue), IC50 assessment; assay type: cell-based; conditions: Homo sapiens, read-out: IC50 CD24+
Experimental: (§6) FIG. 1 represents viability of HMLER CD24− cells (full line) and HMLER CD24+ cells (dotted line) at different concentration of salinomycine (1A), AM5 […] or AM13 (1D).
(§7) Cell viability assay was carried out by plating 1000 cells per well in 96-well plates. NAC (2 mM, A9165 Sigma) or DFO (1 mM) were pretreated 2 hours prior to the compound treatment. CellTiter-Blue® Reagent (Promega; G3582) (20 μl/well) was added after 24, 48, or 72 hours treatment and cells were incubated for 1 hour before recording fluorescence (560(20)Ex/590(10)Em) using a Perkin Elmer Wallac 1420 Victor2 Microplate Reader.

HMLER CD24low cells = experiment: Reactive Oxygen Species (ROS) levels by flow cytometry (CM-H2DCF-DA); assay type: cell-based, Human; conditions: 30 nM, 500 nM or 1 μM, 48 h
Experimental: Reactive Oxygen Species (ROS) levels were measured by flow cytometry or by confocal scanning immunofluorescence microscopy using CM-H2DCF-DA (C6827, invitrogen). Briefly, U2OS and HMLER CD24low cells were treated as indicated in FIG. 11 (30 nM, 500 nM or 1 μM of salinomycine, AM5 or AM23 or untreated during 48 h). Then, these cells were trypsined and incubated with 5 μM CM-H2DCF-DA at 37° C. for 40 min, washed once with PBS and were counterstained with DAPI (0.5 μg/ml) to exclude non-viable cells. The mean fluorescence intensity was determined as ROS production by flow cytometry with LSRFortessa™ cytometer (BD Bioscience, San Jose, Calif.). For immunofluorescence microscopy analysis, cells were seeded on coverslips and were treated with salinomycine derivatives (injection in culture medium then treatment during 24 h, 48 h and 72 h). LysoTracker® Red DND-99 (L-7528, Life technologies) was used to visualize lysosomes. Then, cells were fixed with 4% PFA/PBS. DAPI was used to visualize nuclear DNA. Cell images were obtained using a Deltavision real-time microscope (Applied Precision) or an ApoTome.2 microscope (Zeiss). ImageJ was used for further image processing.
FACS analysis of ROS in cells treated for 48 h is represented in FIG. 17.

MDA-MD-157 = experiment: Cell death IC50, Annexin V-FITC/PI flow cytometry; assay type: cell-based; conditions: Homo sapiens, 96 h, read-out: IC50 MDA-MD-157
Experimental: as §1, §2, §3, §4

MDA-MB-134 = experiment: Cell death IC50, Annexin V-FITC/PI flow cytometry; assay type: cell-based; conditions: Homo sapiens, 96 h, read-out: IC50 MDA-MB-134
Experimental: as §1, §2, §3, §4

HMLE W2 = experiment: Cell death IC50, Annexin V-FITC/PI flow cytometry; assay type: cell-based; conditions: Homo sapiens, read-out: IC50 HMLE W2
Experimental: as §1, §2, §3, §4

BT20 = experiment: Cell death IC50, Annexin V-FITC/PI flow cytometry; assay type: cell-based; conditions: Homo sapiens, BT-20, 108 h, read-out: IC50 BT20
Experimental: as §1, §2, §3, §4

Zr75.1 = experiment: Cell death IC50, Annexin V-FITC/PI flow cytometry; assay type: cell-based; conditions: Homo sapiens, ZR-75-1, 72 h, read-out: IC50 Zr75.1
Experimental: as §1, §2, §3, §4

T47D = experiment: Cell death IC50, Annexin V-FITC/PI flow cytometry; assay type: cell-based; conditions: Homo sapiens, Resistant (108 h)
Experimental: as §1, §2, §3, §4

HMLER ID2 = experiment: Cell death IC50, Annexin V-FITC/PI flow cytometry; assay type: cell-based; conditions: Homo sapiens, 72 h, read-out: IC50 HMLER ID2
Experimental: as §1, §2, §3, §4

HBL100 = experiment: Cell death IC50, Annexin V-FITC/PI flow cytometry; assay type: cell-based; conditions: Homo sapiens, HBL-100, read-out: IC50 HBL100
Experimental: as §1, §2, §3, §4

BT474 = experiment: Cell death IC50, Annexin V-FITC/PI flow cytometry; assay type: cell-based; conditions: Homo sapiens, BT-474, 96 h, read-out: IC50 BT474
Experimental: as §1, §2, §3, §4

BT549 = experiment: Cell death IC50, Annexin V-FITC/PI flow cytometry; assay type: cell-based; conditions: Homo sapiens, BT-549, 108 h, read-out: IC50 BT549
Experimental: as §1, §2, §3, §4

MDA-MB-231 = experiment: Cell death IC50, Annexin V-FITC/PI flow cytometry; assay type: cell-based; conditions: Homo sapiens, MDA-MB-231, 96 h, read-out: IC50 MDA-MB-231
Experimental: as §1, §2, §3, §4

MCF-7 = experiment: Cell death IC50, Annexin V-FITC/PI flow cytometry; assay type: cell-based; conditions: Homo sapiens, MCF7, 72 h, read-out: IC50 MCF-7
Experimental: as §1, §2, §3, §4

MDA-MB-361 = experiment: Cell death IC50, Annexin V-FITC/PI flow cytometry; assay type: cell-based; conditions: Homo sapiens, MDA-MB-361, 96 h, read-out: IC50 MDA-MB-361
Experimental: as §1, §2, §3, §4

HMLER CD24low = experiment: Cell death IC50, Annexin V-FITC/PI flow cytometry; assay type: cell-based; conditions: Homo sapiens, 72 h, read-out: IC50 HMLER CD24low
Experimental: as §1, §2, §3, §4

HMLER GFP = experiment: Cell death IC50, Annexin V-FITC/PI flow cytometry; assay type: cell-based; conditions: Homo sapiens; 1rst sensibility (72 h)
Experimental: as §1, §2, §3, §4

HMLER shECAD = experiment: Cell death IC50, Annexin V-FITC/PI flow cytometry; assay type: cell-based; conditions: Homo sapiens, 72 h, read-out: IC50 HMLER shECAD
Experimental: as §1, §2, §3, §4

HMLER CD24− cells [1] = experiment: Cell viability assay (CellTiter-Blue), IC50 assessment; assay type: cell-based, Human
Experimental: as §6, §7

HMLER CD24− cells [2] = experiment: Cell proliferation and formation of mammospheres; assay type: cell-based, Human
Source text: FIG. 2 is a representative phase contrast photomicrographs of mammospheres formed after 11 days in the absence of any added compound (Control) or in the presence of a defined amount of salinomycine, AM5, AM9 or AM13. […] The size of the mammospheres is correlated with progenitor cell proliferation, whereas the number of mammospheres formed after serial passages at clonal density is correlated with the self-renewal capacity of primitive Cancer Stem Cells. […]
FIG. 9 represents images of the third generation of mammospheres formed from individual HMLER CD24low cells treated during 7 days with the indicated drug. The size of the mammospheres is correlated with progenitor cell proliferation capacity, whereas the number of mammospheres formed after serial passages at clonal density is correlated with the self-renewal capacity of primitive Cancer Stem Cells.
AM5, AM9, AM13 and salinomycine were assessed for their capability to inhibit cell proliferation and formation of mammospheres. […]
AM5 and AM23 and salinomycine were assessed for their capability to inhibit cell proliferation and formation of mammospheres.

[3] = third generation of mammospheres, HMLER CD24low cells treated 7 days

In the case of `CCC(C(=O)O)[C@H]1CC[C@H](C)C([C@@H](C)[C@H](O)[C@H](C)C(=O)[C@H](CC)[C@H]2O[C@]3(C=C[C@@H](NC4CC4)[C@]4(CC[C@@](C)([C@H]5CC[C@](O)(CC)[C@H](C)O5)O4)O3)[C@H](C)C[C@@H]2C)O1` (some centres unmarked) [AM23, Sal-cyclopropylamine], the “death of MDA-MB-231 cells in combination with cathepsine B inhibition” value (MDA-MB-231 cells) was “combine themselves to induce the death”, the pIC50 (SW620) was 6.30 to 7.52 and the pIC50 (SW480) was 6.30 to 7.52. The pIC50 (HMLER CD24+ cells) was 5.92, the ROS induction (HMLER CD24low cells) was “induces ROS” and the pIC50 (MDA-MD-157) was 6.30 to 7.52. It also gave a pIC50 (MDA-MB-134) of under 6.00, a pIC50 (HMLE W2) of 6.00 and a pIC50 (BT20) of 6.30 to 7.52. It also gave a pIC50 (Zr75.1) of 6.30 to 7.52, a pIC50 (T47D) of under 6.00 and a pIC50 (HMLER ID2) of over 7.52. It also gave a pIC50 (HBL100) of under 6.00, a pIC50 (BT474) of under 6.00 and a pIC50 (BT549) of under 6.00. For the same molecule, the pIC50 (MDA-MB-231) was under 6.00, the pIC50 (MCF-7) was 6.30 to 7.52 and the pIC50 (MDA-MB-361) was 6.00. It also gave a pIC50 (HMLER CD24low) of over 7.52, a pIC50 (HMLER GFP) of 7.52 and a pIC50 (HMLER shECAD) of 7.52. The pIC50 (HMLER CD24− cells [1]; Homo sapiens, read-out: IC50 CD24−) was 7.37, the “activity against CD24 cells compared with salinomycine” value (HMLER CD24− cells [1]; comparison of the IC50 results) was “significantly improved activity” and the “inhibition of cell proliferation, efficacy in comparison with salinomycine” value (HMLER CD24− cells [2]; at 30 nM) was “ten-fold improved efficacy”. The number of mammospheres (HMLER CD24− cells [2]; [3]) was “reduced the number of mammospheres” and the size of mammospheres (HMLER CD24− cells [2]; [3]) was “reduced by the highest dose”.
